Experimental data reported in patent US11291666B2, “Uses” (INTRA-CELLULAR THERAPIES, INC., priority 2016, dated 2022).
Entries after “also recorded” stand apart in the source; their conditions may differ.

Legend:
[1] = test system: BV2 cells; assay: RNAseq analysis of LPS-stimulated BV2 cells, differentially expressed transcripts; assay type: cell-based, mouse; conditions: for genes affected by both Compound 214 and Rolipram / genes significantly affected by this compound but not the other (Compound 214 / Rolipram) / overlap of genes affected by Compound 214 and Rolipram: LPS-stimulated BV2 cells
Experimental: (§1) The test compound is added first, the LPS is added one hour later, and the cells and/or media are harvested at five hours from commencement of the experiment.
RNASeq: Flashfreeze BV2cells, isolate RNA, prepare a library using polyA selection, and conduct 1×50 bp single read sequencing on the Illumina HiSeq 2500 in High Output mode (using V4 chemistry). Genes are mapped to reference genome (GRCm38) using CLC Genomics Server. Number of reads per sample average ˜17 million. Differential gene expression analysis is performed using DESeq2software (Bioconductor.org). Differentially expressed genes (p<0.01, Waldtest) are reported as log 2(fold change).

[2] = test system: BV2 cells; assay: Quantitative PCR of inflammatory cytokine mRNA in LPS-treated BV2 cells; assay type: cell-based, mouse
Experimental: Levels of IL1β are measured using quantitative PCR of IL1β mRNA. IL1β is considered a marker of inflammation. Results are depicted in FIG. 2 (RQ: relative quantification of changes in gene expression in treated versus control samples; ***p<0.01 vs control, √p<0.01 vs LPS alone; ANOVA with Newman-Keuls post-hoc test).
BV2 cells are pretreated with compound, ITI-214 or rolipram, a PDE4 inhibitor, then stimulated with 50 ng/ml LPS for 4 hours. Expression levels of TNF, IL1β, Ccl2, and IL6 are measured. Normalized mRNA levels are shown as change from vehicle (ΔΔCt) and compared using a one-way ANOVA. […] The mRNA transcripts for TNF, IL1β, and Ccl2—three of the four cytokines studied in vivo—were elevated in BV2 cells treated with 50 ng/ml LPS.
as §1
(§2) RTqPCR: RNA from BV2 cells purified using RNeasyKit (Qiagen) and from mouse tissue using TRIzol (Ambion). TaqMan primer-probe assays from Thermo Fisher. mRNA levels for all conditions are normalized to GAPDH and to vehicle control (ΔΔCt). Data are analyzed statistically using one-way ANOVA with the Bonferroni post-test for multiple comparisons.

[3] = test system: IL1β mRNA in the hippocampus; assay: IL1β expression in hippocampus in vivo after LPS (quantitative PCR); conditions: mice; LPS 2 mg/kg s.c.; 10 mg/kg i.p.; six hours post injection; FIG. 3
Experimental: At six hours post injection, levels of IL1β in the hippocampus are measured via quantitative PCR of IL1β mRNA. IL1β is considered a marker of inflammation. Data are presented in FIG. 3 (***p<0.01 vs LPS alone, ANOVA with Newman-Keuls post-hoc test).

[4] = test system: BV2 cells; assay: LPS-induced TNFα release from BV2 cells (ELISA); assay type: cell-based, mouse; conditions: 50 ng/ml LPS stimulation, FIG. 5
Experimental: TNFα release: TNFα levels are measured in BV2 conditioned media and normalized to cell protein levels. Inhibition of LPS-induced TNFα release from BV2 cells is depicted in FIG. 5.
as §1
TNFαELISA: Thermo Fisher mouse TNFα colorimetric, sandwich ELISA kit. Interpolatee values from standard curve. Dose response is fit to a 4-parameter logistic curve.

[5] = test system: inflammatory gene expression in mouse striatum; assay: Inflammatory gene expression in mouse striatum after LPS (Q-PCR); assay type: in vivo
Experimental: as §2
The results are based upon an evaluation of samples using Q-PCR.
Data from a further experiment measuring the effect of PDE1 inhibition on inflammatory gene expression in mouse striatum is depicted in FIG. 7. […] Striatal tissue is isolated and flash frozen, and RNA is extracted. Measurements from RT-qPCR are shown as log 2 fold change (2ΔΔCt). n=4 *p<0.05, **p<0.01, ***p<0.001, ****p<0.0001.
Data from yet another experiment measuring the effect of PDE1 inhibition on inflammatory gene expression in mouse striatum is depicted in FIG. 8. […] Striatal tissue is analyzed for mRNA levels of TNF, IL1β, Ccl2, and IL6. Expression levels are shown as change in Q-PCR signal from vehicle (ΔΔCt) and compared using an ANOVA. * p<0.05, **p<0.01, ***p<0.001.

[6] = test system: BV2 cells; assay: RT-qPCR of selected genes in BV2 cells with ITI-214, cyclase activators and PKA/PKG inhibitors; assay type: cell-based, mouse
Experimental: In a further experiment a group of genes is selected for further analysis by RT-qPCR. For comparison, genes are analyzed which have been implicated in the scientific literature in microglial and astrocyte activation, including genes in the complement pathway.
All sample values are normalized to an average of 3 reference genes and to vehicle control (ΔΔCt). The error bars represent the mean+/−SEM (n=4). From left to right, for each cytokine grouping, the bars indicate samples treated with: LPS, 0.1 μM 214+LPS, 0.4 μM 214+LPS, 1.1 μM 214+LPS, 3.3 μM 214+LPS, 10 μM 214+LPS, for each particular gene shown on the X-axis. Significant changes between LPS and 10 μM ITI-214+LPS (A) and Vehicle and 10 μM ITI-214 (B) are marked on the X-axis gene names and are calculated using a one-way ANOVA. * p<0.05, **p<0.01, ***p<0.001, ****p<0.0001.
In one particular experiment, BV2 cells are treated with 10 μM forskolin (FSK) to activate adenylyl cyclases, 5 μM DEANO to activate soluble guanylyl cyclase, or 100 nM atrial natriuretic peptide (ANP) to activate particulate guanylyl cyclase. […] Upon combining forskolin with ITI-214 some of the effects of ITI-214 inhibition can be increased. […] However, LIF reverts to LPS-level expression when forskolin is added.
Note that gene expression levels upon addition of PKA or PKG inhibitor to 10 μM ITI-214 are on the order of those relative to LPS treatment alone were reduced to levels equivalent to 3.3 μM ITI-214.

[7] = test system: BV2 cells; assay: Quantitative PCR of inflammatory cytokine mRNA in LPS-treated BV2 cells; assay type: cell-based, mouse; conditions: LPS 10 microgram/ml, Compound 214 10 microgram/ml, FIG. 2
[8] = BV2 cells, 50 ng/ml LPS for 4 hours, 10 μM, FIG. 4b
[9] = BV2 cells, Compound 214 at 10 μM, FIG. 4a
[10] = Striatum Mouse + LPS, initial results
[11] = adult mice, 10 mg/kg i.p., 500 μg/kg LPS s.c. for 2 hours, FIG. 8
[12] = mouse striatum, 10 mg/kg i.p., LPS 500 μg/kg s.c., two hours, FIG. 7

CN1C(=O)c2c(nn(Cc3ccc(-c4cccc(F)n4)cc3)c2Nc2ccccc2)N2C1=N[C@@H]1CCC[C@@H]12 [Compound 214]
mRNA transcripts decreased in the presence of LPS + compound vs. LPS alone ([1]; BV2 cells, RNAseq): 138 transcripts
overlap between the Compound 214 and rolipram sets of decreased transcripts ([1]; BV2 cells, RNAseq): 48 transcripts
overlap between the Compound 214 and rolipram sets of elevated transcripts ([1]; BV2 cells, RNAseq): 45 transcripts
transcripts elevated in the presence of LPS + compound vs. LPS alone ([1]; BV2 cells, RNAseq): 149 transcripts
genes affected by both Compound 214 and Rolipram ([1]; further RNASeq analysis): 114 genes
genes significantly affected by this compound but not the other (Compound 214 / Rolipram) ([1]; further RNASeq analysis): 293 genes
overlap of genes affected by Compound 214 and Rolipram ([1]; further RNASeq analysis): about 17%
genes affected by both Compound 214 and Rolipram ([1]; still a further experiment): 683 genes
genes significantly affected by this compound but not the other (Compound 214 / Rolipram) ([1]; still a further experiment): 1240 genes
overlap of genes affected by Compound 214 and Rolipram ([1]; still a further experiment): about half
Chemokine (C-C) motif Ligand 2 expression (Q-PCR) ([2]; BV2 + LPS, initial results): Down
Interleukin 1 beta expression (Q-PCR) ([2]; BV2 + LPS, initial results): Down
Tumor necrosis factor expression (Q-PCR) ([2]; BV2 + LPS, initial results): Down
Ccl2 mRNA signal [2, 8]: significantly decreased
IL1β mRNA signal [2, 8]: trended downward
TNF mRNA signal [2, 8]: significantly decreased
LPS-induced increase in expression of Ccl2 [2, 9]: significantly reduces
LPS-induced increase in expression of IL1β [2, 9]: significantly reduces
LPS-induced increase in expression of TNFα [2, 9]: significantly reduces
LPS-induced changes in proinflammatory markers ([2]; BV2 cells, separate experiment, FIG. 4b, 50 ng/ml LPS for 4 hours): greatly reduces or blunts
LPS-induced increase in expression of IL1β in the hippocampus (mRNA) [3]: suppresses; also recorded: significantly blunts
LPS-induced TNFα release [4]: dose-dependent inhibition
Chemokine (C-C) motif Ligand 2 expression (Q-PCR) [5, 10]: Down
Oncostatin M expression (Q-PCR) [5, 10]: Down
expression of Ccl2 mRNA in striatum [5, 11]: attenuates
expression of TNF mRNA in striatum [5, 11]: attenuates
levels of IL1-beta mRNA in striatum [5, 11]: trended to lower levels
levels of IL6 mRNA in striatum [5, 11]: trended to lower levels
LPS stimulation of the pro-inflammatory cytokines TNFα, Ccl2, IL-1β, and IL-6 [5, 12]: inhibits
expression of the anti-inflammatory cytokine IL-10 [5, 12]: significantly enhance
LPS-induced inflammatory gene expression changes in mice ([5]; striatal tissue, 10 mg/kg i.p., 2 hours, FIG. 8): prevents
induction of Cx3cr1 by LPS [6]: significantly reduced
modulation of transcriptional responses to LPS ([6]; 50 ng/ml LPS, 0.1-10 μM, FIG. 10a): dose dependent
ITI-214 responsive transcripts (Cx3cr1, Csf2, TNF, Cc14, MAPKAPK2, PtpN6, Ccr1) with concomitant forskolin ([6]; LPS, 10 μM forskolin, FIG. 11a): further down- or up-modulated
impact of ITI-214 on addition of PKA inhibitor cAMPS-Rp or PKG inhibitor -8-Br-PET-cGMPS ([6]; LPS, inhibitors 100 μM, FIG. 11b): Moderate reduction
basal expression of Cx3cr1 ([6]; in the absence of LPS): significantly reduced
LIF expression ([6]; with LPS, FIG. 11a): further increased
LPS-induced increase in expression of IL1β (mRNA, quantitative PCR) [7]: suppresses; also recorded: significantly blunts
